Source: PubChem BioAssay AID248 (DTP/NCI, 2004)
Several values for one entry are separate records, joined by “and”; a condition that tells them apart may be missing. Identical values can stand only once. Inconclusive results and toxic doses are left out. No stated cut-off is given here; in the data, active means T/C of 150% or more; inactive means T/C below 125%.

Tested on: L1210 leukemia ip in BDF1 mice, survival T/C
Test: NCI In Vivo Anticancer Drug Screen. Data for tumor model L1210 Leukemia (intraperitoneal) in B6D2F1 (BDF1) mice
Conditions: endpoint: mean survival time, higher = longer survival
How it was run: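 Transplantable tumor model; survival measured in treated vs vehicle control mice. Value = treated/control.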

[1] = dose: 25.0 mg/kg/injection, schedule: Q01DX009 (ip), vehicle: Klucel (hydroxypropylcellulose) (HPC)
[2] = dose: 100.0 mg/kg/injection, schedule: Q01DX001 (ip), vehicle: saline
[3] = dose: 200.0 mg/kg/injection, schedule: Q01DX001 (ip), vehicle: saline
[4] = dose: 400.0 mg/kg/injection, schedule: Q01DX001 (ip), vehicle: saline
[5] = dose: 100.0 mg/kg/injection, schedule: Q01DX009 (ip), vehicle: saline
[6] = dose: 200.0 mg/kg/injection, schedule: Q01DX009 (ip), vehicle: saline
[7] = dose: 100.0 mg/kg/injection, schedule: Q04DX003 (ip), vehicle: saline with Tween-80
[8] = dose: 200.0 mg/kg/injection, schedule: Q04DX003 (ip), vehicle: saline with Tween-80
[9] = dose: 400.0 mg/kg/injection, schedule: Q04DX003 (ip), vehicle: saline with Tween-80
[10] = dose: 100.0 mg/kg/injection, schedule: Q01DX009 (ip), vehicle: Klucel (hydroxypropylcellulose) (HPC)
[11] = dose: 200.0 mg/kg/injection, schedule: Q01DX009 (ip), vehicle: Klucel (hydroxypropylcellulose) (HPC)
[12] = dose: 400.0 mg/kg/injection, schedule: Q01DX009 (ip), vehicle: Klucel (hydroxypropylcellulose) (HPC)
[13] = dose: 100.0 mg/kg/injection, schedule: Q04DX003 (ip), vehicle: Klucel (hydroxypropylcellulose) (HPC)
[14] = dose: 200.0 mg/kg/injection, schedule: Q04DX003 (ip), vehicle: Klucel (hydroxypropylcellulose) (HPC)
[15] = dose: 400.0 mg/kg/injection, schedule: Q04DX003 (ip), vehicle: Klucel (hydroxypropylcellulose) (HPC)
[16] = dose: 50.0 mg/kg/injection, schedule: Q01DX009 (ip), vehicle: Klucel (hydroxypropylcellulose) (HPC)
[17] = dose: 100.0 mg/kg/injection, schedule: Q04DX002 (ip), vehicle: Klucel (hydroxypropylcellulose) (HPC)
[18] = dose: 200.0 mg/kg/injection, schedule: Q04DX002 (ip), vehicle: Klucel (hydroxypropylcellulose) (HPC)
[19] = dose: 400.0 mg/kg/injection, schedule: Q04DX002 (ip), vehicle: Klucel (hydroxypropylcellulose) (HPC)
[20] = dose: 100.0 mg/kg/injection, schedule: Q01DX009 (ip), vehicle: saline with Tween-80
[21] = dose: 200.0 mg/kg/injection, schedule: Q01DX009 (ip), vehicle: saline with Tween-80
[22] = dose: 400.0 mg/kg/injection, schedule: Q01DX009 (ip), vehicle: saline with Tween-80

Measured: T/C

COc1cc2c(cc1OC)C(C#N)C2 (stereo not given)
inactive: dose: 6.0 mg/kg/injection, schedule: Q01DX009 (ip), vehicle: Klucel (hydroxypropylcellulose) (HPC) 104 % of control | dose: 12.0 mg/kg/injection, schedule: Q01DX009 (ip), vehicle: Klucel (hydroxypropylcellulose) (HPC) 92 % of control | dose: 12.0 mg/kg/injection, schedule: Q04DX003 (ip), vehicle: Klucel (hydroxypropylcellulose) (HPC) 100 % of control and 105 % of control | [1] 100 % of control | dose: 25.0 mg/kg/injection, schedule: Q04DX003 (ip), vehicle: Klucel (hydroxypropylcellulose) (HPC) 100 % of control | dose: 50.0 mg/kg/injection, schedule: Q04DX003 (ip), vehicle: Klucel (hydroxypropylcellulose) (HPC) 97 % of control and 92 % of control

C=CCN(CC=C)c1ncnc2[nH]ncc12
inactive: dose: 7.0 mg/kg/injection, schedule: Q01DX015 (ip), vehicle: carboxymethylcellulose (CMC) 91 % of control | dose: 16.0 mg/kg/injection, schedule: Q01DX015 (ip), vehicle: carboxymethylcellulose (CMC) 97 % of control | dose: 32.0 mg/kg/injection, schedule: Q01DX015 (ip), vehicle: carboxymethylcellulose (CMC) 93 % of control | dose: 62.0 mg/kg/injection, schedule: Q01DX015 (ip), vehicle: carboxymethylcellulose (CMC) 106 % of control | [2] 109 % of control | dose: 125.0 mg/kg/injection, schedule: Q01DX015 (ip), vehicle: carboxymethylcellulose (CMC) 89 % of control | [3] 101 % of control | [4] 93 % of control

CC(=O)OCC1CCCN1C(C)=O (stereo not given)
inactive: dose: 50.0 mg/kg/injection, schedule: Q01DX009 (ip), vehicle: saline 101 % of control | [5] 101 % of control | [6] 101 % of control

CC(=O)C1=C(C)NC(C)=C(C(C)=O)C1c1ccccc1
inactive: [7] 96 % of control | [8] 96 % of control | [9] 98 % of control

C=C(C)C(=O)N(C)C
inactive: [5] 105 % of control | [6] 113 % of control | dose: 400.0 mg/kg/injection, schedule: Q01DX009 (ip), vehicle: saline 103 % of control

C/C(CCCCl)=N/N=C(N)N
inactive: dose: 12.5 mg/kg/injection, schedule: Q04DX003 (ip), vehicle: saline 100 % of control | dose: 18.75 mg/kg/injection, schedule: Q01DX009 (ip), vehicle: saline with Tween-80 96 % of control | dose: 25.0 mg/kg/injection, schedule: Q04DX003 (ip), vehicle: saline 110 % of control | dose: 37.5 mg/kg/injection, schedule: Q01DX009 (ip), vehicle: saline with Tween-80 90 % of control | dose: 50.0 mg/kg/injection, schedule: Q04DX003 (ip), vehicle: saline 103 % of control | dose: 75.0 mg/kg/injection, schedule: Q01DX009 (ip), vehicle: saline with Tween-80 94 % of control | dose: 75.0 mg/kg/injection, schedule: Q04DX003 (ip), vehicle: acetone 95 % of control | dose: 110.0 mg/kg/injection, schedule: Q01DX009 (ip), vehicle: saline with Tween-80 98 % of control

CC(=Nc1cc(C)ccc1C)c1c(O)cc(C)oc1=O
inactive: [10] 97 % of control | [11] 97 % of control | [12] 103 % of control

COc1cc([N+](=O)[O-])c(N)c([N+](=O)[O-])c1
inactive: dose: 50.0 mg/kg/injection, schedule: Q01DX001 (ip), vehicle: saline 96 % of control | [2] 108 % of control | [3] 96 % of control | [4] 93 % of control

C1=C(c2ccccc2)CCCC1
inactive: [10] 92 % of control | [13] 106 % of control | [11] 95 % of control | [14] 100 % of control | [12] 109 % of control | [15] 92 % of control

CSCSCC(NC(=O)c1ccccc1)C(=O)O (stereo not given)
inactive: [2] 104 % of control | dose: 150.0 mg/kg/injection, schedule: Q04DX003 (ip), vehicle: saline 90 % of control | [3] 104 % of control | dose: 300.0 mg/kg/injection, schedule: Q04DX003 (ip), vehicle: saline 87 % of control | [4] 98 % of control | dose: 600.0 mg/kg/injection, schedule: Q04DX003 (ip), vehicle: saline 92 % of control

Cc1cccc(NC(=O)/C=C/c2ccccc2)n1
inactive: [1] 96 % of control | [16] 89 % of control | [10] 103 % of control and 91 % of control | [17] 91 % of control

CCCCNC(=O)N(CC)c1cccc(C)c1
inactive: [17] 105 % of control | [18] 118 % of control | [19] 102 % of control

Nc1cccn2cnnc12
inactive: [2] 103 % of control | [3] 101 % of control | [4] 97 % of control

OCNC(=S)c1c(Cl)cccc1Cl
inactive: [7] 100 % of control | [8] 102 % of control | [9] 102 % of control

CC1(C)CCCC(Br)C1=O (stereo not given)
inactive: [16] 97 % of control | [10] 104 % of control

NC(=O)NNC(=O)c1ccccc1
inactive: [10] 100 % of control | [13] 96 % of control | [11] 104 % of control | [14] 94 % of control | [12] 98 % of control | [15] 100 % of control

Cc1cc(N(CCCl)CCCl)ccc1C=Nc1cc(Cl)c(O)c(Cl)c1
inactive: dose: 100.0 mg/kg/injection, schedule: Q01DX001 (ip), vehicle: carboxymethylcellulose (CMC) 96 % of control | dose: 200.0 mg/kg/injection, schedule: Q01DX001 (ip), vehicle: carboxymethylcellulose (CMC) 96 % of control | dose: 400.0 mg/kg/injection, schedule: Q01DX001 (ip), vehicle: carboxymethylcellulose (CMC) 105 % of control

CCN(CC)CCNc1nc(-c2cc(C(F)(F)F)cc(C(F)(F)F)c2)nc(C(Cl)(Cl)Cl)n1
inactive: dose: 100.0 mg/kg/injection, schedule: Q04DX002 (ip), vehicle: saline 88 % of control | dose: 200.0 mg/kg/injection, schedule: Q04DX002 (ip), vehicle: saline 101 % of control | dose: 400.0 mg/kg/injection, schedule: Q04DX002 (ip), vehicle: saline 88 % of control

CC(=O)N(/C=C/C=C/C=C1\C(=O)N(c2ccc(S(=O)(=O)O)cc2)N=C1C)c1ccccc1
inactive: [2] 99 % of control | [3] 98 % of control | [4] 88 % of control

CCCCCCCCCCc1nc(N)nc(NCCc2ccccc2)n1
inactive: [17] 106 % of control | [18] 89 % of control | [19] 100 % of control

CCC(N)C(O)C(Cl)(Cl)Cl (stereo not given)
inactive: [20] 103 % of control | [7] 89 % of control | [21] 98 % of control | [22] 109 % of control

O=C1c2ccccc2C(=O)N1CCOCCOCCN1C(=O)c2ccccc2C1=O
inactive: dose: 25.0 mg/kg/injection, schedule: Q01DX009 (ip), vehicle: saline with Tween-80 108 % of control | dose: 50.0 mg/kg/injection, schedule: Q01DX009 (ip), vehicle: saline with Tween-80 96 % of control and 92 % of control | [20] 88 % of control and 92 % of control | [17] 98 % of control | [21] 98 % of control | [18] 98 % of control | [19] 98 % of control

O=[N+]([O-])c1cc(Br)cc(Br)c1
inactive: [20] 97 % of control | [7] 91 % of control | [21] 99 % of control | [8] 94 % of control | [22] 93 % of control | [9] 93 % of control

CCN(CC)Cc1ccccc1
inactive: dose: 75.0 mg/kg/injection, schedule: Q01DX001 (ip), vehicle: other 95 % of control

CCOC(=O)CSC#N
inactive: [2] 101 % of control | [17] 95 % of control | [3] 101 % of control | [18] 91 % of control | [4] 95 % of control | [19] 107 % of control

O=C(COc1ccc(Cl)c(Cl)c1)Nc1cccnc1
inactive: dose: 75.0 mg/kg/injection, schedule: Q01DX009 (ip), vehicle: Klucel (hydroxypropylcellulose) (HPC) 104 % of control | dose: 150.0 mg/kg/injection, schedule: Q01DX009 (ip), vehicle: Klucel (hydroxypropylcellulose) (HPC) 96 % of control | dose: 300.0 mg/kg/injection, schedule: Q01DX009 (ip), vehicle: Klucel (hydroxypropylcellulose) (HPC) 101 % of control
